Measured values: paper PMC7031696 (Cell chemical biology, 2019)
Where two headings read alike, the source gives them in different places.

Key:
[1] = test system: Plasmodium falciparum 3D7-A10 parasites; assay: Stage specificity assay (8-h exposure of synchronized stages, IC50^8h); format: cell-based; details: for IC50: Plasmodium falciparum
[2] = test system: asynchronous 3D7-A10 parasite cultures; assay: Standard 72-h exposure asexual blood stage susceptibility assay (IC50^72h); format: cell-based, Plasmodium falciparum; details: Plasmodium falciparum, 3D7, 72 h, read-out: Overall (72hr assay) Mean IC50 (IC50^72h)
[3] = test system: 3D7-MR4 trophozoite parasite-infected RBCs; assay: Metabolomic profiling (hydrophilic metabolite changes, UHPLC-MS); format: cell-based, Plasmodium falciparum

SMILES: COc1cncc(-c2cncc(N3CCN(c4ccncc4)CC3)n2)c1 [MMV085071]
- Ratio lowest IC50 8hr/IC50 72hr ([1]; 3D7-A10): 0.6
- IC50 ([1]; 3D7, read-out: Early rings Mean IC50 (IC50^8h), 8-h exposure 0–8 hr, 3D7-A10, survival at 60 h): 893 nM
- IC50 ([1]; 3D7, read-out: Early trophozoites Mean IC50 (IC50^8h), 8-h exposure 16–24 hr, 3D7-A10, survival at 60 h): 61.1 nM
- IC50 ([1]; 3D7, read-out: Late rings Mean IC50 (IC50^8h), 8-h exposure 8–16 hr, 3D7-A10, survival at 60 h): 492 nM
- IC50 ([1]; 3D7, read-out: Late trophozoites Mean IC50 (IC50^8h), 8-h exposure 24–32 hr, 3D7-A10, survival at 60 h): 81.4 nM
- IC50 ([1]; 3D7, read-out: Schizonts Mean IC50 (IC50^8h), 8-h exposure 32–40 hr, 3D7-A10, survival at 60 h): 254 nM
- Peak Activity (Table S1) ([1]; stage(s) with the lowest IC50^8h): Trophs
- IC50 [2]: 105 nM
- changes within the set of metabolites detected (low fold change group) ([3]; 10 × IC50^72h, 2.5 hr, trophozoites): did not induce major changes
- Log2(fold changes) 3-phosphoglycerate ([3]; metabolite 3-phosphoglycerate, log2 fold change): -0.3571
- Log2(fold changes) 4-Pyridoxic acid ([3]; metabolite 4-Pyridoxic acid, log2 fold change): 0.1725
- Log2(fold changes) 4-aminobutyrate ([3]; metabolite 4-aminobutyrate, log2 fold change): -0.2370
- Log2(fold changes) 4-phosphopantetheine ([3]; metabolite 4-phosphopantetheine, log2 fold change): 0.0000
- Log2(fold changes) 4-phosphopantothenate ([3]; metabolite 4-phosphopantothenate, log2 fold change): -0.0279
- Log2(fold changes) 5-aminopentanoic acid ([3]; metabolite 5-aminopentanoic acid, log2 fold change): 0.0000
- Log2(fold changes) 5-methyl-THF ([3]; metabolite 5-methyl-THF, log2 fold change): 0.0000
- Log2(fold changes) 5-phosphoribosyl-1-pyrophosphate ([3]; metabolite 5-phosphoribosyl-1-pyrophosphate, log2 fold change): 0.0000
- Log2(fold changes) 6-phospho-D-gluconate ([3]; metabolite 6-phospho-D-gluconate, log2 fold change): -0.0766
- Log2(fold change) HVDD ([3]; metabolite HVDD): 1.5471
- Log2(fold change) Hydroxyisocaproic acid ([3]; metabolite Hydroxyisocaproic acid): 0.0000
- Log2(fold change) IDP ([3]; metabolite IDP): 0.0000
- Log2(fold change) IMP ([3]; metabolite IMP): -0.0355
- Log2(fold change) Inositol ([3]; metabolite Inositol): 0.0000
- Log2(fold change) Isopentyl-PP ([3]; metabolite Isopentyl-PP): 0.0000
- Log2(fold change) L-arginino-succinate ([3]; metabolite L-arginino-succinate): 0.7586
- Log2(fold change) LD ([3]; metabolite LD): 1.2308
- Log2(fold change) Myristoyl/tetradecanoyl-CoA ([3]; metabolite Myristoyl/tetradecanoyl-CoA): 0.0000
- Log2(fold change) N-Acetyl-L-alanine ([3]; metabolite N-Acetyl-L-alanine): 0.1191
- Log2(fold change) N-acetyl-L-ornithine ([3]; metabolite N-acetyl-L-ornithine): 1.0380
- Log2(fold change) N-acetyl-glucosamine-1/6-phosphate ([3]; metabolite N-acetyl-glucosamine-1/6-phosphate): 0.0154
- Log2(fold change) N-acetyl-glutamate ([3]; metabolite N-acetyl-glutamate): 0.1593
- Log2(fold change) N-acetyl-glutamine ([3]; metabolite N-acetyl-glutamine): -0.2990
- Log2(fold change) N-carbamoyl-L-aspartate ([3]; metabolite N-carbamoyl-L-aspartate): 0.1424
- Log2(fold change) NAD+ ([3]; metabolite NAD+): 0.0189
- Log2(fold change) NADH ([3]; metabolite NADH): 0.0000
- Log2(fold change) NADP+ ([3]; metabolite NADP+): 0.1777
- Log2(fold change) NADPH ([3]; metabolite NADPH): 0.0000
- Log2(fold change) O-acetyl-L-serine ([3]; metabolite O-acetyl-L-serine): 0.0000
- Log2(fold change) Octoluse 8/1P ([3]; metabolite Octoluse 8/1P): 0.0000
- Log2(fold change) Octoluse Bisphosphate ([3]; metabolite Octoluse Bisphosphate): 0.0955
- Log2(fold change) PD ([3]; metabolite PD): 0.1245
- Log2(fold change) PE ([3]; metabolite PE): 0.4481
- Log2(fold change) PEE ([3]; metabolite PEE): 1.1300
- Log2(fold change) PEEK ([3]; metabolite PEEK): 1.3266
- Log2(fold change) PVNF ([3]; metabolite PVNF): 0.3702
- Log2(fold change) Pyroglutamic acid ([3]; metabolite Pyroglutamic acid): 0.0000
- Log2(fold change) Pyrophosphate ([3]; metabolite Pyrophosphate): 0.0000
- Log2(fold change) Ribose-5-phosphate ([3]; metabolite Ribose-5-phosphate): 0.0000
- Log2(fold change) S-adenosyl-L-homocysteine ([3]; metabolite S-adenosyl-L-homocysteine): -0.0131
- Log2(fold change) S-adenosyl-L-methioninamine ([3]; metabolite S-adenosyl-L-methioninamine): 0.0000
- Log2(fold change) S-adenosyl-L-methionine ([3]; metabolite S-adenosyl-L-methionine): 0.0000
- Log2(fold change) S-methyl-5'-thioadenosine ([3]; metabolite S-methyl-5'-thioadenosine): 0.0000
- Log2(fold change) SD ([3]; metabolite SD): 0.5330
- Log2(fold change) SDL ([3]; metabolite SDL): 0.1100
- Log2(fold change) SID ([3]; metabolite SID): -0.3348
- Log2(fold change) Sedoheptulose bisphosphate ([3]; metabolite Sedoheptulose bisphosphate): 0.0203
- Log2(fold change) Thiamine pyrophosphate ([3]; metabolite Thiamine pyrophosphate): 0.0000
- Log2(fold changes) UDP-D-glucose ([3]; metabolite UDP-D-glucose, log2 fold change): 0.0450
- Log2(fold changes) UDP-D-glucuronate ([3]; metabolite UDP-D-glucuronate, log2 fold change): 0.0222
- Log2(fold changes) UDP-N-acetyl-glucosamine ([3]; metabolite UDP-N-acetyl-glucosamine, log2 fold change): -0.1104
- Log2(fold changes) UDP ([3]; metabolite UDP, log2 fold change): 0.8151
- Log2(fold changes) UMP ([3]; metabolite UMP, log2 fold change): -0.2015
- Log2(fold changes) UTP ([3]; metabolite UTP, log2 fold change): -0.1278
- Log2(fold change) hydroxyphenylpyruvate ([3]; metabolite hydroxyphenylpyruvate): 0.0000
- Log2(fold change) hydroxyproline/Aminolevulinate ([3]; metabolite hydroxyproline/Aminolevulinate): -0.0385
- Log2(fold change) hypoxanthine ([3]; metabolite hypoxanthine): 0.0000
- Log2(fold change) indole ([3]; metabolite indole): 0.0000
- Log2(fold change) inosine ([3]; metabolite inosine): -0.0754
- Log2(fold change) isoleucine ([3]; metabolite isoleucine): -0.1140
- Log2(fold change) lactate ([3]; metabolite lactate): 0.0000
- Log2(fold change) leucine ([3]; metabolite leucine): -0.0775
- Log2(fold change) lysine ([3]; metabolite lysine): 0.0000
- Log2(fold change) malate ([3]; metabolite malate): -0.0512
- Log2(fold change) maleic acid ([3]; metabolite maleic acid): -0.0636
- Log2(fold change) methionine ([3]; metabolite methionine): 0.2308
- Log2(fold change) myo-inositol ([3]; metabolite myo-inositol): 0.0000
- Log2(fold change) nicotinamide mononucleotide ([3]; metabolite nicotinamide mononucleotide): 0.0000
- Log2(fold change) nicotinate ([3]; metabolite nicotinate): 0.2062
- Log2(fold change) ornithine ([3]; metabolite ornithine): 0.0000
- Log2(fold change) orotate ([3]; metabolite orotate): 0.3476
- Log2(fold change) orotidine-5'-phosphate ([3]; metabolite orotidine-5'-phosphate): 0.4326
- Log2(fold change) oxaloacetate ([3]; metabolite oxaloacetate): 0.0000
- Log2(fold change) p-aminobenzoate ([3]; metabolite p-aminobenzoate): 0.0000
- Log2(fold change) p-hydroxybenzoate ([3]; metabolite p-hydroxybenzoate): 0.0000
- Log2(fold change) pantothenate ([3]; metabolite pantothenate): -0.2410
- Log2(fold change) phenylalanine ([3]; metabolite phenylalanine): -0.1015
- Log2(fold change) phenylpyruvate ([3]; metabolite phenylpyruvate): 0.0000
- Log2(fold change) phosphoenolpyruvate ([3]; metabolite phosphoenolpyruvate): -0.3652
- Log2(fold change) prephenate ([3]; metabolite prephenate): 0.0000
- Log2(fold change) proline ([3]; metabolite proline): 0.0444
- Log2(fold change) pyridoxine ([3]; metabolite pyridoxine): 0.0000
- Log2(fold change) pyruvate ([3]; metabolite pyruvate): -0.4378
- Log2(fold change) riboflavin ([3]; metabolite riboflavin): -0.6618
- Log2(fold change) ribose ([3]; metabolite ribose): 0.0000
- Log2(fold change) ribose-phosphate ([3]; metabolite ribose-phosphate): -0.0725
- Log2(fold change) ribulose-5-phosphate ([3]; metabolite ribulose-5-phosphate): -0.2555
- Log2(fold change) serine ([3]; metabolite serine): 0.5038
- Log2(fold change) sn-glycerol-3-phosphate ([3]; metabolite sn-glycerol-3-phosphate): -0.1967
- Log2(fold change) succinate/Methylmalonic acid ([3]; metabolite succinate/Methylmalonic acid): -0.0635
- Log2(fold change) succinyl-CoA/methylmalonyl-CoA ([3]; metabolite succinyl-CoA/methylmalonyl-CoA): 0.0000
- Log2(fold change) taurine ([3]; metabolite taurine): 0.0000
- Log2(fold change) thiamine ([3]; metabolite thiamine): 0.0498
- Log2(fold change) threonine/homoserine ([3]; metabolite threonine/homoserine): 0.1750
- Log2(fold change) thymidine ([3]; metabolite thymidine): 0.0000
- Log2(fold changes) thymine ([3]; metabolite thymine, log2 fold change): 0.0000
- Log2(fold changes) trehalose-6-Phosphate ([3]; metabolite trehalose-6-Phosphate, log2 fold change): 0.0000
- Log2(fold changes) tryptophan ([3]; metabolite tryptophan, log2 fold change): -0.0120
- Log2(fold changes) tyrosine ([3]; metabolite tyrosine, log2 fold change): 0.0532
- Log2(fold changes) uridine ([3]; metabolite uridine, log2 fold change): 0.0000
